Measured values as given in paper PMC4445981, “The glutamate transport inhibitor DL-Threo-β-Benzyloxyaspartic acid (DL-TBOA) differentially affects SN38- and oxaliplatin-induced death of drug-resistant colorectal cancer cells” (BMC Cancer, 2015).

Assays:
[1] = test system: [3H]-D-Asp uptake (glutamate transporter activity) in HCT116-SN38 cells; assay: [3H]-D-Asp uptake assay, HCT116-SN38; type: cell-based, human; conditions: HCT116-SN38, 100 nM [3H]-D-Asp, 6 min, 37 °C
Experimental: (§1) We therefore next determined glutamate transporter activity (as uptake of the substrate [^3H]-D-Asp following a 6-min incubation in buffer supplemented with a tracer concentration of 100 nM [^3H]-D-Asp). […] To determine which transporter(s) was responsible for the [^3H]-D-Asp uptake, we assessed the effect of DL-TBOA, a nonselective inhibitor of EAATs, and UCPH-101, a specific SLC1A3 inhibitor [16, 28, 29]. […] Basal [^3H]-D-Asp uptake was decreased by about 60 % in SN38-resistant compared to parental HCT116 cells, whereas that in SN38-resistant LoVo cells was nearly tripled compared to parental LoVo cells.
(§2) The [^3H]-D-Asp uptake assay was performed essentially as in [30]. Briefly, cells were split into poly-D-lysine-coated white 96-well plates (PerkinElmer). A similar number of cells were seeded for HCT116 parental, HCT116-SN38 and HCT116-Oxa cell lines (7 × 10^4 cells/well) and LoVo parental, Lovo-SN38 and Lovo-Oxa cell lines (6 × 10^4 cells/well). 16–24 h later, culture medium was aspirated, and cells were washed once with 100 μl assay buffer (Hank’s Buffered Saline Solution supplemented with 20 mM HEPES, 1 mM CaCl2 and 1 mM MgCl2, pH 7.4). 50 μl assay buffer supplemented with 100 nM [^3H]-D-Asp and test compounds as indicated was added, and the plate was incubated at 37 °C for 6 min. Non-specific [^3H]-D-Asp uptake was determined in wells with 3 mM L-glutamate. The assay mixture was quickly removed, and wells were washed with 2 × 100 μl ice-cold assay buffer, followed by 150 μl Microscint™20 scintillation fluid (PerkinElmer). The plate was shaken for 1 h and counted in a Wallac 1450 MicroBeta Trilux scintillation counter (GMI, Ramsey, MN).

[2] = test system: [3H]-D-Asp uptake (glutamate transporter activity) in HCT116-PAR cells; assay: [3H]-D-Asp uptake assay, HCT116-PAR; type: cell-based, human; conditions: HCT116-PAR, 100 nM [3H]-D-Asp, 6 min, 37 °C
Experimental: as §1, §2

[3] = test system: p21^WAF1/Cip (p21); assay: p21 protein level by Western blotting; type: cell-based, human; conditions: for p21 protein level: 24 h, 0.8 μM SN38 or 20 μM oxaliplatin
Experimental: (§3) Cells were grown to a confluence of 60-80 % and treated with chemotherapy, siRNA- or plasmid transfection as indicated. Cells were washed once in PBS, lysed in lysis buffer (1 % SDS, 0.1 M Tris pH 7.5, and 1 mM Na3VO4), sonicated, and protein content determined (DC assay, BioRad). Lysates were mixed 2:1with NuPage LDS sample buffer (Invitrogen). SDS-PAGE was carried out in NOVEX chambers with NuPAGE 10 % Bis-Tris gels under reducing and denaturing conditions, using BenchMark protein ladder (Invitrogen), and 15 μg protein per lane. Proteins were transferred to PVDF membranes, which were Ponceau S stained, blocked for 1 h at 37 °C in 5 % nonfat dry milk in TBST (0.01 M Tris/HCl, 0.15 M NaCl, 0.1 % Tween 20, pH 7.4), incubated overnight at 4 °C with primary antibodies diluted in blocking buffer, washed in TBST, incubated with secondary antibodies for 1 h, washed in TBST, and developed using BCIP/NBT (KPL). Bands were scanned and quantified using UN-SCAN-IT (Silk Scientific).
Supplementary file 12885_2015_1405_MOESM3_ESM.tiff: Additional file 3: Figure S3. Effects of DL-TBOA on cell death and survival parameters after chemotherapy treatment of HCT116 cells. Parental and drug-resistant HCT116 cell lines seeded in 6-well dishes were exposed to SN38 (0.8 μM) or oxaliplatin (20 μM), alone or in combination with 350 μM DL-TBOA as indicated, for 24 h. Equal amounts of protein per lane were separated by SDS-PAGE and the protein levels of p21, and PARP-1 (full-length and cleaved, the latter indicated by arrowheads) were determined by Western blotting. Top: Representative Western blots, with p150 as loading control. Bottom: Densitometric quantifications based on 3 independent experiments per condition. Data are means with S.E.M. error bars of 3 independent experiments. *) p < 0.05, **) p < 0.01, ***) p < 0.001,****) p < 0.0001 compared to the control group without drug or TBOA treatment; #) p < 0.05 compared to controls without TBOA treatment. Two-way ANOVA with Tukey post-test.

[4] = test system: p53; assay: p53 protein level by Western blotting; type: cell-based, human; conditions: 24 h; for p53 protein level: 0.8 μM SN38 or 20 μM oxaliplatin
Experimental: Fig. 5 Effects of DL-TBOA on cell death and survival parameters after chemotherapy treatment. Parental and drug-resistant HCT116 (a) and LoVo (b) cell lines were exposed to SN38 (0.8 μM) or oxaliplatin (20 μM), alone or in combination with 350 μM DL-TBOA as indicated, for 24 h. Equal amounts of protein per lane were separated by SDS-PAGE and the protein level of p53 was determined by Western blotting. Top: Representative Western blots, with p150 as loading control. Bottom: Densitometric quantifications based on 3 independent experiments per condition. Data are means with S.E.M. error bars of 3 independent experiments. *) p < 0.05, **) p < 0.01, ***) p < 0.001,****) p < 0.0001 compared to the control group without drug or TBOA treatment; Two-way ANOVA with Tukey post-test
as §3

[5] = test system: CTR1; assay: CTR1 protein level by Western blotting; type: cell-based, human; conditions: 24 h
Experimental: Fig. 3 Effect of acute DL-TBOA and chemotherapy treatment on CTR1 protein level. Parental and drug-resistant HCT116 (a) and LoVo (b) cell lines were exposed to SN38 (0.8 μM) or oxaliplatin (20 μM), alone or in combination with 350 μM DL-TBOA as indicated for 24 h. Equal amounts of protein per lane were separated by SDS-PAGE and the protein levels of CTR1 were determined by Western blotting. Top: Representative Western blots (tubulin serves as a loading control), bottom: Densitometric quantification data summarized from 3 independent experiments per condition. Quantitative data are means with S.E.M. error bars of 3 independent experiments. *) p < 0.05, **) p < 0.01, ***) p < 0.001 compared to the control group without drug or TBOA treatment. Two-way ANOVA with Tukey post-test
Cells were grown to a confluence of 60-80 % and treated with chemotherapy, siRNA- or plasmid transfection as indicated. Cells were washed once in PBS, lysed in lysis buffer (1 % SDS, 0.1 M Tris pH 7.5, and 1 mM Na3VO4), sonicated, and protein content determined (DC assay, BioRad). Lysates were mixed 2:1with NuPage LDS sample buffer (Invitrogen). SDS-PAGE was carried out in NOVEX chambers with NuPAGE 10 % Bis-Tris gels under reducing and denaturing conditions, using BenchMark protein ladder (Invitrogen), and 15 μg protein per lane. […] Bands were scanned and quantified using UN-SCAN-IT (Silk Scientific).

[6] = test system: SLC1A1; conditions: depending on the system and experimental setup; cited from earlier work
[7] = read-out: IC50, [3H]-D-Asp uptake

| SMILES | pIC50 ± S.E.M., [3H]-D-Asp uptake [1] | IC50 [1, 7] | pIC50 ± S.E.M., [3H]-D-Asp uptake [2] | IC50 [2, 7] | effect on cellular level of p21 ([3]; DL-TBOA, HCT116 and LoVo cells) | effect on chemotherapy-induced p53 induction ([4]; 350 μM DL-TBOA concomitant to SN38 or oxaliplatin, parental and drug-resistant HCT116 and LoVo) | effect on CTR1 protein level ([5]; 350 μM DL-TBOA +/- SN38 (0.8 μM) or oxaliplatin (20 μM), HCT116 and LoVo lines) | IC50 values in uptake assays [6] | p21 protein level ([3]; SN38-resistant HCT116 cells) | p21 protein level ([3]; parental HCT116 cells) | p53 protein level ([4]; SN38-resistant HCT116 cells) | p53 protein level ([4]; parental HCT116 cells) | effect on CTR1 protein expression ([5]; 20 μM oxaliplatin, all cell lines except parental HCT116, HCT116-Oxa, LoVo-Oxa) |
| --- | --- | --- | --- | --- | --- | --- | --- | --- | --- | --- | --- | --- | --- |
| N[C@H](C(=O)O)[C@H](OCc1ccccc1)C(=O)O (racemic) [TBOA, DL-Threo-β-Benzyloxyaspartic acid] | 5.83 ± 0.08 | 1500 nM | 5.75 ± 0.03 | 1800 nM | did not significantly alter | apparent decrease in p53 induction | without detectable effects | low micromolar range | – | – | – | – | – |
| O=C(O)C(=O)O.[NH-][C@@H]1CCCC[C@H]1[NH-].[Pt+2] [oxaliplatin] | – | – | – | – | – | – | – | – | retained | markedly induced | retained | markedly induced | tended to reduce CTR1 protein expression |
